Structures are written as SMILES. Where two headings read alike, the source gives them in different places.

Here are results for two compounds from patent US11052086B2, “2-anilinopyrimidine derivatives as therapeutic agents for treatment of brain cancers” (Beta Pharma, Inc., priority 2016, dated 2021).

Data set [1] relates to NCI-H1975-Luc cells. Kind of data set: Intracranially implanted NCI-H1975-Luc tumor efficacy study in mice (BLI and survival). It is filed as in vivo. How it is done: N-(2-(2-(Dimethylamino)ethoxy)-4-methoxy-5-((4-(1-methyl-1H-indol-3-yl)pyrimidin-2-yl)amino)phenyl)acrylamide methanesulfonate (1⋅Ms; C27H30N6O3.1.06 CH3SO3H. MW=486.58, FW=588.45, purity=100%) was formulated in a vehicle of 1% polysorbate 80 in water. The complete vehicle was added to the pre-weighed compound to achieve a 5 mg/mL stock solution, suitable for treatment of the 50 mg/kg dose level. The mixture was vortexed for approximately one minute resulting in a light yellow solution with a pH value of 7. The dosing solution was prepared fresh daily.
Female Envigo Nude mice (Hsd:Athymic Nude-Foxn1^nu) were used. They were 6-7 weeks old on Day 1 of the experiment. The animals were fed irradiated Harlan 2918.15 Rodent Diet and water ad libitum. Animals were housed in static cages with Bed-O'Cobs™ bedding inside Biobubble® Clean Rooms that provide H. E. P. A filtered air into the bubble environment at 100 complete air changes per hour. All treatments, body weight determinations, and tumor measurements were carried out in the bubble environment. The environment was controlled to a temperature range of 70±2 OF and a humidity range of 30-70%.
NCI-H1975-Luc cells were obtained from Clovis. They were grown in RPMI 1640 medium which was modified with 1 mM Na pyruvate+2 mM L-glutamine+10 mM HEPES+2.5 g/L glucose+5 ug/mL blasticidin and supplemented with 10% non-heat-inactivated Fetal Bovine Serum (FBS) and 1% 100× Penicillin/Streptomycin/L-Glutamine (PSG). The growth environment was maintained in an incubator with a 5% CO2 atmosphere at 37° C. When expansion was complete, the cells (passage 4) were trypsinized using 0.25% trypsin-EDTA solution. Following cell detachment, the trypsin was inactivated by dilution with complete growth medium and any clumps of cells were separated by pipetting. The cells were centrifuged at 200 ref for 8 minutes at 4° C. the supernatant was aspirated, and the pellet was re-suspended in cold Dulbecco's Phosphate Buffered Saline (DPBS) by pipetting. An aliquot of the homogeneous cell suspension was diluted in a trypan blue solution and counted using a Luna automated cell counter to determine a pre-implantation cell viability. The cell suspension was centrifuged at 200 ref for 8 minutes at 4° C. The supernatant was aspirated and the cell pellet was re-suspended in cold serum-free medium to generate a final concentration of 1.00E+08 trypan-excluding cells/mL. The cell suspension was maintained on wet ice during implantation. Following implantation, an aliquot of the remaining cells was diluted with a trypan blue solution and counted to determine the post-implantation cell viability.
Test mice were implanted intracranially on Day 0 with 1.00E+06 cells per 10 μL as per the protocol (Appendix 1). For aseptic surgical implantation, mice were injected with 0.2 mg/kg buprenorphine and anesthetized using 2% isoflurane in air. The mice were then secured in a stereotaxic frame (ASI instruments, Inc.) using non-rupture ear bars. Ocular ointment was applied to the eyes of the mice to prevent drying during surgery. A re-circulating 37° C. water heated pad was used to maintain the animal's body temperature during the implantation procedure. Once in the stereotaxic frame, the cranium was swabbed with alternating chlorhexidine solution and 70% ethanol-saturated swabs to disinfect the skin surface and prepare for the incision. A 1 cm longitudinal incision was made centrally over bregma of the cranium using a #15 BD scalpel blade. The incision was retracted using small, serrated serrefines. The thin layer of connective tissue covering the surface of the skull was removed using dry cotton swabs under light pressure. Bleeding vessels were cauterized to prevent blood loss. A 0.9 mm drill bit was then centered over bregma, moved 2 mm right lateral, 1 mm anterior to the coronal suture and lowered to score the surface of the skull using the stereotaxic electrode manipulator arm. […]

Data set [2] is described as follows: Pharmacokinetics in male SD rats dosed PO (plasma and brain). Conditions: male SD rats PO 5 mg/kg; for Cmax: 0.5% methylcellulose vehicle; for MRT inf: read-out: MRT0-inf; for MRT last: read-out: MRT0-last. It is filed as in vivo, rat.
The test system of data set [3] is kinase domain of the T790M double mutant. Put plainly: Inhibition of EGFR T790M double mutant kinase domain. To be noted: in addition to the activating mutations. In kind it is biochemical.
Where [4] appears, read: 50 mg/kg, PO, QD×14 (Days 5-18).

For the compound `C=CC(=O)Nc1cc(Nc2nccc(-c3cn(C)c4ccccc34)n2)c(OC)cc1OCCN(C)C` [1⋅Ms, N-(2-(2-(Dimethylamino)ethoxy)-4-methoxy-5-((4-(1-methyl-1H-indol-3-yl)pyrimidin-2-yl)amino)phenyl)acrylamide methanesulfonate], the increase in lifespan in data set [1] (setting [4]) came out at 15 days. For the same compound, in data set [1] (50 mg/kg, PO, QD×14 (Days 5-18), median BLI signal treated/control ×100, P<0.05), the “BLI derived Day 13 % T/C” value is listed as 1%. Besides, in data set [1] (50 mg/kg, PO, QD×14 (Days 5-18), methanesulfonate), the “% ILS (life-span increase vs. vehicle)” value amounted to 107%. This compound showed a median lifespan in data set [1] (50 mg/kg, PO, QD×14 (Days 5-18), p<0.001) of 29.0 days. The tolerability of treatment entry in data set [1] (50 mg/kg, PO, QD×14 in nude mice) is “well-tolerated”. In data set [1] (By Day 18, 50 mg/kg PO QD×14, CR = BLI below 2.0E+05 photons/sec), the “animals with complete regressions” value is recorded as “none”. Moreover, the “animals with partial tumor regressions” value in data set [1] (By Day 18, 50 mg/kg PO QD×14, PR = ≥50% decrease in tumor BLI signal) was determined as 100%. In addition, in data set [2] (Brain), the AUC0-inf was found to be 5085 ng·h/g, the AUC0-last is 5047 ng·h/g, the AUCExtra is 0.746% and the AUMCExtra is on record as 2.57%. The Tlast in data set [2] (Brain) is listed as 18.0 h. Further, in data set [2] (Plasma), the AUCExtra amounted to 0.593%, the AUMCExtra is on record as 2.42% and the Tlast turned out to be 18.0 h. Moreover, the Kp in data set [2] (rat, Brain (vs plasma), read-out: AUC Ratio) came out at 9.44. In data set [2] (rat, Brain), the Tmax (as a rule, the time at which the peak concentration occurs) is 2 h; the half-life (in general, the time in which the quantity being followed falls by half) is 2.01 h; the peak level (Cmax) was 606 ng/g; the MRT inf was determined as 6.07 h. The MRT last in data set [2] (rat, Brain) was 5.95 h. In data set [2] (rat, Plasma), the AUC(0-t) (commonly the area under the concentration-time curve up to a stated or last time point) was determined as 535 ng·h/mL, the Tmax was found to be 2 h, the half-life was 1.97 h and the concentration peaked (Cmax) at 96.3 ng/mL. In addition, in data set [2] (rat, Plasma), the MRT inf is 5.1 h and the MRT last worked out at 5.01 h. The AUC0-inf in data set [2] (rat, Plasma, read-out: AUC0-inf) was found to be 538 ng·h/mL.

With `C=CC(=O)Nc1cc(Nc2nccc(-c3cn(C)c4ccccc34)n2)c(OC)cc1OCCN(C)C` [Compound 1], the “% ILS (life-span increase vs. vehicle)” value in data set [1] (setting [4]) is “greater than 100%”. For the same compound, in data set [3], the “inhibition of the kinase domain of the T790M double mutant” value is listed as “effectively inhibits”.
